Laboratory results reported in patent US20230390274A1 (EPIRIUM BIO INC., priority 2020, published 2023).
Read-outs that look alike come from different tables or passages of the source.

Target: 15-PGDH/HPGD (Homo sapiens (Human), UniProt P15428)
Assay: hPGDH inhibitor screening biochemical assay
Procedure, shortened: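 10 nM recombinant 15-PGDH was preincubated with compound (10-point) for 10 min at 37° C. in 50 mM Tris-HCl pH 7.5, 0.01% Tween 20. Then 15 μM PGE2 and 0.25 mM NAD+ were added for 10 min at rt. NADH fluorescence (ex/em 340/485 nm) gave % inhibition versus 1% DMSO and a four-parameter IC50.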

[1] = 10 nM 15-PGDH/HPGD, 15 μM PGE2, 0.25 mM NAD, read-out: hPGDH: Average IC50
[2] = Table 1, PGDH inhibitors with a 6-5 ring core, read-out: hPGDH: IC50
[3] = Table 2, PGDH inhibitors with a phenyl core, read-out: hPGDH: IC50

15-PGDH/HPGD, sequence (P15428 whole entry): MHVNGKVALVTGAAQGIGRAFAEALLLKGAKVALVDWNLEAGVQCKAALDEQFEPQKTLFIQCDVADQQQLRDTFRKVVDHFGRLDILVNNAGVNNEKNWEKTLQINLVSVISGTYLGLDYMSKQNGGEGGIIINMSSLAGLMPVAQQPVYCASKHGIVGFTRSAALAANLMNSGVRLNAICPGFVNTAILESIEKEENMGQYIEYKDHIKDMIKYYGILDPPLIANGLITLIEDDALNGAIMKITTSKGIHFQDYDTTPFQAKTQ

IC50 [1]	SMILES	also measured
< 100 nM	CN(C)c1ccc(-n2ccc3cc(C(=O)N4CCC(F)CC4)cnc32)cc1 [A-327]	–
< 100 nM	O=C(c1cnc2c(ccn2-c2cccc(CO)c2)c1)N1CCCCC1 [A-164]	–
< 100 nM	CC(C)(C)C(=O)NCCNC(=O)c1ccc(-n2ccc3cc(C(=O)N4CCC(F)(F)CC4)cnc32)cc1 [A-215, 4-(5-(4,4-difluoropiperidine-1-carbonyl)-1H-pyrrolo[2,3-b]pyridin-1-yl)-N-(2-pivalamidoethyl)benzamide]	–
≥ 1000 nM	COc1ccc(-n2ccc3cc(C(=O)N4CCC(c5ccccc5)CC4)cnc32)cc1 [A-134]	–
≥ 1000 nM	COc1ccc(-n2ccc3cc(C(=O)N4CCN(CC(F)(F)F)CC4)cnc32)cc1 [A-136]	–
< 100 nM	COc1ccc(-n2cc(Cl)c3cc(C(=O)N4CCCCC4)cnc32)cc1 [A-166]	–
< 100 nM	NC(=O)c1cccc(-n2ccc3cc(C(=O)N4CCC(F)CC4)cnc32)c1 [A-123]	–
–	O=C(c1ccc2c(c1)ncn2-c1cccc(Cl)c1)N1CCC(F)(F)C1 [drawing 83]	IC50 [2]: 1260 nM
< 100 nM	O=C(c1cnc2c(c1)ncn2-c1ccc(F)cc1)N1CCCCC1 [A-178]	–
≥ 1000 nM	O=C1CCN(C(=O)c2ccc3c(c2)ncn3-c2cccc(Cl)c2)C1 [A-24, 1-(1-(3-chlorophenyl)-1H-benzo[d]imidazole-5-carbonyl)pyrrolidin-3-one]	–
< 100 nM	N#Cc1ccc(-n2ccc3cc(C(=O)N4CCC(F)CC4)cnc32)cc1 [A-114]	–
≥ 1000 nM	O=C(c1cnc2c(ccn2C2CCC(F)(F)CC2)c1)N1CCCCC1 [A-320]	–
< 100 nM	O=C(c1cnc2c(ccn2-c2cccc(-c3nn[nH]n3)c2)c1)N1CCC(F)(F)CC1 [A-291, (1-(3-(2H-tetrazol-5-yl)phenyl)-1H-pyrrolo[2,3-b]pyridin-5-yl)(4,4-difluoropiperidin-1-yl)methanone]	–
< 100 nM	O=C(c1cnc2c(c1)ncn2-c1cccc(Cl)c1)N1CCCCC1 [A-62]	–
< 100 nM	O=C(c1ccc(COc2ccccc2Br)cc1)N1CCCCC1 [A-69]	–
< 100 nM	O=C(NC(CO)CO)c1ccc(-n2ccc3cc(C(=O)N4CCC(F)(F)CC4)cnc32)cc1 [A-222]	–
< 100 nM	O=C(c1cnc2c(ccn2-c2ccncn2)c1)N1CCCCC1 [A-43]	–
< 100 nM	O=C(c1cnc2c(ccn2-c2cn[nH]c2)c1)N1CCCCC1 [A-48]	–
< 100 nM	O=C(c1cnc2c(ccn2-c2ccc3c(c2)OC(F)(F)O3)c1)N1CCCCC1 [A-317]	–
< 100 nM	O=C(Nc1cncc(-n2ccc3cc(C(=O)N4CCC(F)(F)CC4)cnc32)c1)c1ccno1 [A-256]	–
–	O=C(c1ccc2c(c1)ncn2-c1cccc(Cl)c1)N1CC2CCC(C2)C1 [drawing 97]	IC50 [2]: 46.6 nM
< 100 nM	CNC(=O)c1cncc(-n2ccc3cc(C(=O)N4CCCCC4)cnc32)c1 [A-349]	–

IC50 [1]	SMILES	also measured
–	O=C(c1cnc2c(-c3cccc(Cl)c3)cnn2c1)N1CCCCC1 [drawing 107]	IC50 [2]: 49.3 nM
< 100 nM	O=C(c1cnc2c(ccn2-c2cncc(Cl)c2)c1)N1CCCCC1 [A-144]	–
< 100 nM	CCOc1ccc(-n2ccc3cc(C(=O)N4CCCCC4)cnc32)cc1 [A-151]	–
< 100 nM	CS(=O)(=O)NCCNC(=O)c1cccc(-n2ccc3cc(C(=O)N4CCC(F)(F)CC4)cnc32)c1 [A-271, 3-(5-(4,4-difluoropiperidine-1-carbonyl)-1H-pyrrolo[2,3-b]pyridin-1-yl)-N-(2-(methylsulfonamido)ethyl)benzamide]	–
< 100 nM	O=C(c1cnc2c(ccn2-c2cncc(-c3nnn[nH]3)c2)c1)N1CCC(F)(F)CC1 [A-251, (1-(5-(1H-tetrazol-5-yl)pyridin-3-yl)-1H-pyrrolo[2,3-b]pyridin-5-yl)(4,4-difluoropiperidin-1-yl)methanone]	–
< 100 nM	O=C(NCCO)c1cccc(-n2ccc3cc(C(=O)N4CCC(F)(F)CC4)cnc32)c1 [A-263, 3-(5-(4,4-difluoropiperidine-1-carbonyl)-1H-pyrrolo[2,3-b]pyridin-1-yl)-N-(2-hydroxyethyl)benzamide]	–
< 100 nM	COCCNC(=O)c1ccc(-n2ccc3cc(C(=O)N4CCCCC4)cnc32)cc1 [A-139]	–
< 100 nM	O=C(c1cnc2c(ccn2-c2cccnc2)c1)N1CCCCC1 [A-42]	–
< 100 nM	O=C(c1cnc2c(c1)c(Cl)cn2-c1cncnc1)N1CCC(F)CC1 [A-60]	–
–	O=C(c1ccc2c(c1)ncn2-c1cccc(Cl)c1)N1CC2CCCC2C1 (stereo not shown) [drawing 102]	IC50 [2]: 24.9 nM
–	COc1ccc(-n2cnc3cc(C(=O)N4CCCCC4)ccc32)cc1 [drawing 110]	IC50 [2]: 6.4 nM
–	COc1ccccc1NC(=O)c1ccc(C(=O)N2CCCCC2)cc1	IC50 [3]: 593 nM
≥ 1000 nM	CCC(CC)n1cnc2cc(C(=O)N3CCC(F)CC3)cnc21 [A-176]	–
< 100 nM	Cc1c(C(=O)N2CCC(F)CC2)cnc2c1ccn2-c1cnccn1 [A-97, (4-fluoropiperidin-1-yl)(4-methyl-1-(pyrazin-2-yl)-1H-pyrrolo[2,3-b]pyridin-5-yl)methanone]	–
< 100 nM	O=C(c1cnc2c(ccn2-c2cncc(N3CCOC3=O)c2)c1)N1CCC(F)(F)CC1 [A-267]	–
< 100 nM	N#Cc1ccc(-n2cnc3cc(C(=O)N4CCC(F)(F)CC4)cnc32)cc1 [A-193]	–
< 100 nM	NS(=O)(=O)c1cccc(-n2ccc3cc(C(=O)N4CCC(F)(F)CC4)cnc32)c1 [A-279]	–
–	COc1ccccc1C(=O)Nc1ccc(C(=O)N2CCCCC2)cc1 [drawing 118]	IC50 [3]: 27.1 nM
< 100 nM	NC[C@@H]1CN(c2ccc(-n3ccc4cc(C(=O)N5CCC(F)(F)CC5)cnc43)cn2)C(=O)O1 [A-269]	–
< 100 nM	O=C(c1cnc2c(ccn2-c2cscn2)c1)N1CCCCC1 [A-47]	–
–	O=C(c1ccc2c(c1)c(Cl)cn2-c1cccc(Cl)c1)N1CCCCC1 [drawing 104]	IC50 [2]: 10.6 nM
–	COc1ccc(-n2cnc3cc(C(=O)N4CCC(F)CC4)ccc32)cc1 [drawing 109]	IC50 [2]: 43.7 nM

IC50 [1]	SMILES	also measured
< 100 nM	O=C(c1ccc2c(ccn2-c2cccc(Cl)c2)c1)N1CCCCC1 [A-87]	–
< 100 nM	O=C(c1cnc2c(ccn2-c2ccc(-c3noc(=O)[nH]3)nc2)c1)N1CCC(F)(F)CC1 [A-254, 3-(5-(5-(4,4-difluoropiperidine-1-carbonyl)-1H-pyrrolo[2,3-b]pyridin-1-yl)pyridin-2-yl)-1,2,4-oxadiazol-5(4H)-one]	–
< 100 nM	O=C(c1cnc2c(ccn2-c2cnccn2)c1)N1CCCCC1 [A-45]	–
< 100 nM	CC(C)(C)c1ccc(NC(=O)c2cncc(-n3ccc4cc(C(=O)N5CCC(F)(F)CC5)cnc43)c2)cn1 [A-335, N-(6-(tert-butyl)pyridin-3-yl)-5-(5-(4,4-difluoropiperidine-1-carbonyl)-1H-pyrrolo[2,3-b]pyridin-1-yl)nicotinamide]	–
≥ 1000 nM	N#Cc1ccc(-n2ccc3cc(C(=O)N4CCC(F)CC4)ncc32)cc1 [A-260, 4-(5-(4-fluoropiperidine-1-carbonyl)-1H-pyrrolo[2,3-c]pyridin-1-yl)benzonitrile]	–
< 100 nM	COc1cccc(-n2cc(Cl)c3cc(C(=O)N4CCCCC4)cnc32)c1 [A-169]	–
< 100 nM	O=C(c1ccc2c(c1)ncn2-c1cccc(Cl)c1)N1CC2CCC(C2)C1 [A-4]	–
< 100 nM	NC(=O)c1ccc(-n2cc(Cl)c3cc(C(=O)N4CCC(F)CC4)cnc32)cc1 [A-203, 4-(3-chloro-5-(4-fluoropiperidine-1-carbonyl)-1H-pyrrolo[2,3-b]pyridin-1-yl)benzamide]	–
< 100 nM	NC[C@@H]1CN(c2cncc(-n3ccc4cc(C(=O)N5CCC(F)(F)CC5)cnc43)c2)C(=O)O1 [A-270]	–
< 100 nM	O=C(c1ccc(-n2ccc3cc(C(=O)N4CCC(F)(F)CC4)cnc32)cc1)N(CCO)CCO [A-249]	–
< 100 nM	CC(C)(C)NC(=O)c1ccc(-n2ccc3cc(C(=O)N4CCC(F)(F)CC4)cnc32)cn1 [A-218, N-(tert-butyl)-5-(5-(4,4-difluoropiperidine-1-carbonyl)-1H-pyrrolo[2,3-b]pyridin-1-yl)picolinamide]	–
< 100 nM	O=C(c1cnc2c(ccn2-c2cccc(C(=O)N3CCS(=O)(=O)C3)c2)c1)N1CCC(F)(F)CC1 [A-281, (4,4-difluoropiperidin-1-yl)(1-(3-(1,1-dioxidothiazolidine-3-carbonyl)phenyl)-1H-pyrrolo[2,3-b]pyridin-5-yl)methanone]	–
< 100 nM	CCOC(=O)Nc1cncc(-n2ccc3cc(C(=O)N4CCC(F)(F)CC4)cnc32)c1 [A-275, ethyl (5-(5-(4,4-difluoropiperidine-1-carbonyl)-1H-pyrrolo[2,3-b]pyridin-1-yl)pyridin-3-yl)carbamate]	–
< 100 nM	O=C(c1ccc2c(c1)ncn2-c1cccc(Cl)c1)N1CC2(CCC2)C1 [A-5]	–
< 100 nM	O=C(c1cnc2c(ccn2-c2ccc(-c3nnn[nH]3)nc2)c1)N1CCC(F)(F)CC1 [A-250, (1-(6-(1H-tetrazol-5-yl)pyridin-3-yl)-1H-pyrrolo[2,3-b]pyridin-5-yl)(4,4-difluoropiperidin-1-yl)methanone]	–
< 100 nM	NC(=O)c1ccc(-n2cc(Cl)c3cc(C(=O)N4CCCCC4)cnc32)cc1 [A-204, 4-(3-chloro-5-(piperidine-1-carbonyl)-1H-pyrrolo[2,3-b]pyridin-1-yl)benzamide]	–
< 100 nM	O=C(c1ccc(COc2ccccc2-c2cncs2)cc1)N1CCCCC1 [A-79]	–
< 100 nM	NCCNC(=O)c1ccc(-n2ccc3cc(C(=O)N4CCC(F)(F)CC4)cnc32)cc1 [A-221, N-(2-aminoethyl)-4-(5-(4,4-difluoropiperidine-1-carbonyl)-1H-pyrrolo[2,3-b]pyridin-1-yl)benzamide]	–
< 100 nM	Cn1cc(-c2cccc(Cl)c2)c2ccc(C(=O)N3CCCCC3)cc21 [A-90, (3-(3-chlorophenyl)-1-methyl-1H-indol-6-yl)(piperidin-1-yl)methanone]	–
< 100 nM	COc1ccc(-n2ccc3cc(C(=O)N4CCCCC4)cnc32)cc1 [A-146]	–
